Reference: patent publication US20250163054A1, “SUBSTITUTED BICYCLIC HETEROARYL COMPOUNDS USEFUL AS INHIBITORS OF TLR9” (Bristol-Myers Squibb Company, priority 2022, published 2025)

Columns and labels:
Type in all cases: cell-based
[1] = target: T1, human TLR9 (Homo sapiens, UniProt Q9NR96); assay: TLR7/8/9 Inhibition Reporter Assays (TLR9); details: HEK-Blue cells overexpressing human TLR9, SEAP reporter, stimulated with TLR9 ligand ODN2006
T1 construct: host or cells: HEK-Blue cells (HEK293-derived reporter line)
T1 sequence (Q9NR96 26-1032): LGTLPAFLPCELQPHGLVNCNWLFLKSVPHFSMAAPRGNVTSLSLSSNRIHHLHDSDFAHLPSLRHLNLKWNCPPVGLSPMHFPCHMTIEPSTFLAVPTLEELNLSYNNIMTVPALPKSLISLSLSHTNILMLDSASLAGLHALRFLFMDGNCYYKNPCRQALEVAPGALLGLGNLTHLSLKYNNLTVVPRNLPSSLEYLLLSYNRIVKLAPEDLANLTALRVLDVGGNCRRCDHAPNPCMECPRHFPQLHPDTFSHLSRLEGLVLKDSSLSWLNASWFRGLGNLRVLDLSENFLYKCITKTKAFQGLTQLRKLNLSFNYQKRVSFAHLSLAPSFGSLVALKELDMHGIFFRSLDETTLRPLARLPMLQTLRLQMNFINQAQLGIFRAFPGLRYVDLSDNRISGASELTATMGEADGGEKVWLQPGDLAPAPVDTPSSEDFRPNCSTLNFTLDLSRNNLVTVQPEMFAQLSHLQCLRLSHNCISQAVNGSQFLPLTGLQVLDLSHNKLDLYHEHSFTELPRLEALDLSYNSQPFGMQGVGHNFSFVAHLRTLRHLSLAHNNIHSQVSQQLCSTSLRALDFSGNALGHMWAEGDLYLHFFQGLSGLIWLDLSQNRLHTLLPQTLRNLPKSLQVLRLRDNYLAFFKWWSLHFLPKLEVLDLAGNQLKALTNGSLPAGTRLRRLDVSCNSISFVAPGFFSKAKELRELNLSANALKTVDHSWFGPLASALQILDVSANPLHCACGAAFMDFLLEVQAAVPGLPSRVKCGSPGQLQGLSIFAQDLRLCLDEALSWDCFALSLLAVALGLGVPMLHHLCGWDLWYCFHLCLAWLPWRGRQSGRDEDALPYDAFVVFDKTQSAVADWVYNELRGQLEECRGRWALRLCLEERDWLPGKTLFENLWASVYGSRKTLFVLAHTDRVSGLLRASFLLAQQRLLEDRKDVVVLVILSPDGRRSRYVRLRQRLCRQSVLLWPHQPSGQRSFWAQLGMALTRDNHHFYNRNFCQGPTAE
Summary of the method: (§1)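 HEK-Blue cells overexpressing human TLR7, TLR8 or TLR9 with NF-κB/AP-1-driven SEAP reporter, pre-treated 60 min with compound ([…]). Stimulated with […] (TLR7), […] (TLR8) or ODN2006 200 nM (TLR9), then 22 h at 37° C; SEAP measured, % inhibition relative to agonist-plus-DMSO and known-inhibitor wells.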

[2] = target: T2, human TLR7 (Homo sapiens, UniProt Q9NYK1); assay: TLR7/8/9 Inhibition Reporter Assays (TLR7); details: HEK-Blue cells overexpressing human TLR7, SEAP reporter, stimulated with TLR7 ligand gardiquimod
T2 construct: host or cells: HEK-Blue cells (HEK293-derived reporter line)
T2 sequence (Q9NYK1 27-1049): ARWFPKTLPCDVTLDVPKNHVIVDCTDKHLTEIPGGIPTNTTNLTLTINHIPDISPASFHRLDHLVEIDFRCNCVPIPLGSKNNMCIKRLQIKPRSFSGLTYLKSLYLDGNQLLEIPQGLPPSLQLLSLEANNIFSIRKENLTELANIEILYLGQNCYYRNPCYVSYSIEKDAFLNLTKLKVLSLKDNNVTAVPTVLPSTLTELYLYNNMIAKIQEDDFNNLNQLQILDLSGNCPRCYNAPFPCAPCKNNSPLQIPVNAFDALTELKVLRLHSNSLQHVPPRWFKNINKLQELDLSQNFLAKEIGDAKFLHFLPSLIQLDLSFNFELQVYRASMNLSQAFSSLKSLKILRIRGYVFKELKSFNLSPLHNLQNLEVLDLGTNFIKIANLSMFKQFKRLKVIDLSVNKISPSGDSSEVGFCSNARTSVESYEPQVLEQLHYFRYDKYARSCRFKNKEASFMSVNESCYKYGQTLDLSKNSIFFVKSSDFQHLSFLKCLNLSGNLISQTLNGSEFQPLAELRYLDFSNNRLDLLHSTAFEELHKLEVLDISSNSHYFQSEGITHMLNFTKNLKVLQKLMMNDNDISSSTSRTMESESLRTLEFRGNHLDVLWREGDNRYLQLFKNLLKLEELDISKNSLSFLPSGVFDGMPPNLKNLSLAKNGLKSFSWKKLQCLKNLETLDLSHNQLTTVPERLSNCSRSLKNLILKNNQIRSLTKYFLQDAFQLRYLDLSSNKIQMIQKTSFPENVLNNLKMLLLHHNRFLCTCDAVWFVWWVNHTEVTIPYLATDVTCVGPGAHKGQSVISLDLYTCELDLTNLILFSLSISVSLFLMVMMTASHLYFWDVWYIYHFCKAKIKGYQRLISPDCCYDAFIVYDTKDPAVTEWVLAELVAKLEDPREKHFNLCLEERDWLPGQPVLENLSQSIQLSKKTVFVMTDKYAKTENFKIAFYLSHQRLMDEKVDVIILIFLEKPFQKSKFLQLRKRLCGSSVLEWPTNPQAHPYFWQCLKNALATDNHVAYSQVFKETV
Summary of the method: as §1

[3] = target: T3, human TLR8 (Homo sapiens, UniProt Q9NR97); assay: TLR7/8/9 Inhibition Reporter Assays (TLR8); details: HEK-Blue cells overexpressing human TLR8, SEAP reporter, stimulated with TLR8 ligand R848
T3 construct: host or cells: HEK-Blue cells (HEK293-derived reporter line)
T3 sequence (Q9NR97 27-1041): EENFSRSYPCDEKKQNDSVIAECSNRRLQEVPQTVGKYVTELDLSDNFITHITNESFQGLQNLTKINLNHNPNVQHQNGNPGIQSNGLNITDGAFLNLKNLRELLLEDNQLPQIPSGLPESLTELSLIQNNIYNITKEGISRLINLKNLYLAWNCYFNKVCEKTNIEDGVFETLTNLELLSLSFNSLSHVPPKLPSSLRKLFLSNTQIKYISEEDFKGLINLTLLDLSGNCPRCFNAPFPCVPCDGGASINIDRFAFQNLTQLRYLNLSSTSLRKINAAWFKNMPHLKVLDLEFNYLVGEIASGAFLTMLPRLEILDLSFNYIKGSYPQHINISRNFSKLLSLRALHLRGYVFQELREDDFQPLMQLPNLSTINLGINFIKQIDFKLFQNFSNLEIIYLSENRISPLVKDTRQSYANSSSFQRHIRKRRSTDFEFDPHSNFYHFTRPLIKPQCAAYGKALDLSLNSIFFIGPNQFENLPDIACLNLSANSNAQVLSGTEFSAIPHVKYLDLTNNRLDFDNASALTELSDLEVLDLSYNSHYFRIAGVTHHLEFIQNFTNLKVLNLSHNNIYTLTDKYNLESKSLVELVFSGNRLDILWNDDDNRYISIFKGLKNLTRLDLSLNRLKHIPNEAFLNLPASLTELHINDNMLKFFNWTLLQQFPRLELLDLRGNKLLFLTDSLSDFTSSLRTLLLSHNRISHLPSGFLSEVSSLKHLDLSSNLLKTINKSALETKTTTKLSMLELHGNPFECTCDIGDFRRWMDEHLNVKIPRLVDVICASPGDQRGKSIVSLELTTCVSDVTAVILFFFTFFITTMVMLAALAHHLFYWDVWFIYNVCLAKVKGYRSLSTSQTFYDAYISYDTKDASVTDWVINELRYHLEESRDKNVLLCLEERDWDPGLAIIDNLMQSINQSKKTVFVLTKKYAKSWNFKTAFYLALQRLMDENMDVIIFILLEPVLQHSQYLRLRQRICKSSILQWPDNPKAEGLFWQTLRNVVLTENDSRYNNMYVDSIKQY
Summary of the method: as §1

Compound | IC50 [1] [nM] | IC50 [2] [nM] | IC50 [3] [nM]
Cc1nc(-c2ccc(N3CC4(CCN(C(C)C)CC4)C3)cc2)cc2c1nc(-c1ccc(S(C)(=O)=O)cc1)n2C [Example 63, 6-(4-(7-isopropyl-2,7-diazaspiro[3.5]nonan-2-yl)phenyl)-1,4-dimethyl-2-(4-(methylsulfonyl)phenyl)-1H-imidazo[4,5-c]pyridine] | 170 | 1400 | 5300
CC(C)N1CC2(CCN(c3ccc(-c4cc5c(cn4)nc(-c4ccc(S(C)(=O)=O)cc4)n5C)cc3)C2)C1 [Example 64, 6-(4-(2-isopropyl-2,6-diazaspiro[3.4]octan-6-yl)phenyl)-1-methyl-2-(4-(methylsulfonyl)phenyl)-1H-imidazo[4,5-c]pyridine] | 220 | 2800 | 790
COc1ccc(-c2nc3c(C)nc(-c4ccc(N5C[C@H]6CN(CC(C)C)C[C@H]6C5)cc4)cc3n2C)cc1OC [Example 65, 2-(3,4-dimethoxyphenyl)-6-(4-((3aR,6aS)-5-isobutylhexahydropyrrolo[3,4-c]pyrrol-2(1H)-yl)phenyl)-1,4-dimethyl-1H-imidazo[4,5-c]pyridine] | 59 | 5400 | > 50000
COc1ccc(-c2nc3c(C)nc(-c4ccc(N5C[C@@H]6CN(C7CCC7)C[C@@H]6C5)cc4)cc3n2C)cc1OC [Example 66, 6-(4-((3aR,6aS)-5-cyclobutylhexahydropyrrolo[3,4-c]pyrrol-2(1H)-yl)phenyl)-2-(3,4-dimethoxyphenyl)-1,4-dimethyl-1H-imidazo[4,5-c]pyridine] | 29 | 2300 | 20000
Cc1nc(-c2ccc(N3C[C@@H]4CN(C(C)C)C[C@@H]4C3)cc2)cc2c1nc(-c1ccc(S(C)(=O)=O)cc1)n2C [Example 67, 6-(4-((3aR,6aS)-5-isopropylhexahydropyrrolo[3,4-c]pyrrol-2(1H)-yl)phenyl)-1,4-dimethyl-2-(4-(methylsulfonyl)phenyl)-1H-imidazo[4,5-c]pyridine] | 41 | 1900 | 1800
Cc1nc(-c2ccc(N3C[C@H]4CN(CC(C)C)C[C@H]4C3)cc2)cc2c1nc(-c1ccc(S(C)(=O)=O)cc1)n2C [Example 68, 6-(4-((3aR,6aS)-5-isobutylhexahydropyrrolo[3,4-c]pyrrol-2(1H)-yl)phenyl)-1,4-dimethyl-2-(4-(methylsulfonyl)phenyl)-1H-imidazo[4,5-c]pyridine] | 32 | 2000 | 3100
Cc1nc(-c2ccc(N3C[C@@H]4CN(C5CCC5)C[C@@H]4C3)cc2)cc2c1nc(-c1ccc(S(C)(=O)=O)cc1)n2C [Example 69, 6-(4-((3aR,6aS)-5-cyclobutylhexahydropyrrolo[3,4-c]pyrrol-2(1H)-yl)phenyl)-1,4-dimethyl-2-(4-(methylsulfonyl)phenyl)-1H-imidazo[4,5-c]pyridine] | 37 | 2800 | 5400
CC(C)N1CCN(c2ccc(-c3cc4c(cn3)nc(-c3ccc(S(C)(=O)=O)cc3)n4C)cc2)CC1 [Example 70, 6-(4-(4-isopropylpiperazin-1-yl)phenyl)-1-methyl-2-(4-(methylsulfonyl)phenyl)-1H-imidazo[4,5-c]pyridine] | 230 | 5300 | 440
COc1ccc(-c2nc3c(C)nc(-c4ccc(N5CC6(CN(CC(C)C)C6)C5)cc4)cc3n2C)cc1OC [Example 71, 2-(3,4-dimethoxyphenyl)-6-(4-(6-isobutyl-2,6-diazaspiro[3.3]heptan-2-yl)phenyl)-1,4-dimethyl-1H-imidazo[4,5-c]pyridine] | 130 | 1000 | 17000
Cc1nc(-c2ccc(N3CCC4(CC3)CN(C(C)C)C4)cc2)cc2c1nc(-c1ccc(S(C)(=O)=O)cc1)n2C [Example 72, 6-(4-(2-isopropyl-2,7-diazaspiro[3.5]nonan-7-yl)phenyl)-1,4-dimethyl-2-(4-(methylsulfonyl)phenyl)-1H-imidazo[4,5-c]pyridine] | 160 | 650 | 6000
Cc1nc(-c2ccc(N3CCC4(CC3)CN(CC(C)C)C4)cc2)cc2c1nc(-c1ccc(S(C)(=O)=O)cc1)n2C [Example 73, 6-(4-(2-isobutyl-2,7-diazaspiro[3.5]nonan-7-yl)phenyl)-1,4-dimethyl-2-(4-(methylsulfonyl)phenyl)-1H-imidazo[4,5-c]pyridine] | 110 | 890 | 3900
Cc1nc(-c2ccc(N3CCC4(CC3)CN(C3CCC3)C4)cc2)cc2c1nc(-c1ccc(S(C)(=O)=O)cc1)n2C [Example 74, 6-(4-(2-cyclobutyl-2,7-diazaspiro[3.5]nonan-7-yl)phenyl)-1,4-dimethyl-2-(4-(methylsulfonyl)phenyl)-1H-imidazo[4,5-c]pyridine] | 38 | 1100 | 3700
